These results are taken from patent US20230312587A1, “PTERIDINONE COMPOUNDS AND USES THEREOF” (Vertex Pharmaceutical Incorporated, priority 2018, published 2023).

The subject of one test is Colo-205 cells. Put plainly: Calcium flux assay (FLIPR Calcium 5). The class given is cell-based. As to conditions: FLIPR Calcium 5, measured over 36 minutes. The procedure:
Compounds described herein induced ER stress by causing intracellular calcium flux. Calcium flux was measured in Colo-205 cells using the FLTPR® Calcium 5 Assay Kit according to manufacter's protocol (Molecular Devices, Cat. #R8186) on a FLIPR3 system (Molecular Devices). Calcium flux is measured over 36 minutes. The Colo-205 calcium flux assay data are summarized in Table 47: A<0.6 μM; 0.6 μM≤B<2.0 μM; 2.0 μM≤C<10.0 μM; D≥10.0 μM.
Background: A change in cytosolic calcium serves as a functional read-out for many receptors and channels.

Test [1] has as its system β-catenin-TCF-mediated reporter transcription activity in Colo 205 cells. Put plainly: Colo 205 reporter assay (TCF/LEF luciferase). It is filed as cell-based. As to conditions: Colo 205 TCF/LEF luciferase reporter, five hours after addition of compound, read-out: TCF reporter Colo205 IC50. A digest of the protocol: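 Luciferase signal from a TCF/LEF-driven reporter, stably integrated in Colo 205 colon cancer cells, was measured 5 h after compound addition.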
(Reporter assays use an easily measured gene product as a stand-in for the process of interest.)

Test [2] addresses HEK293 membranes over-expressing WFS-1 (Homo sapiens (Human), UniProt O76024). Put plainly: Radioligand displacement assay (tritiated Compound 136 probe). The class given is binding. As to conditions: displacement of tritiated Compound 136. How it is done: Cell pellets were re-suspended in 15 times packed cellular volume in 4° C. hypotonic lysis buffer (10 mM HEPES, pH 7.5 containing 1×Protease inhibitor, 0.5 mM EDTA and 2 mM DTT). Re-suspended cells were homogenized with 6-8 strokes in a dounce homogenizer kept on ice. Lysates were centrifuged at 500×G for 15 minutes at 4° C. without brake to decelerate rotor. Following centrifugation, remove the supernatant to a fresh tube and place on ice (Supernatant 1). Repeat the above steps on the lysed cell pellet using 0.5 the original volume of hypotonic lysis buffer and remove the 500× G supernatant (Supernatant 2) and combine with Supernatant 1. Transfer the combined supernatants to a 45-Ti ultracentrifuge tube and centrifuge at 100,000× G for 30 minutes. Following ultracentrifugation, carefully remove the supernatant and discard. Resuspend the 100,000× G pellet in cold resuspension buffer (10 mM HEPES, pH 7.5, 300 mM NaCl containing 1× Protease inhibitor, 1× EDTA and 2 mM DTT). Centrifuge sample at 500× G for 10 minutes with no brake and remove any cloudy, flocculent material. Resuspend pellet in resuspension buffer to approximately 2 mg/mL of protein concentration for use in radioligand binding assay and immunoblotting.
The binding affinities of compounds were determined by measuring the competitive displacement of a tritiated Compound 136 probe from purified HEK293 membranes over-expressing WFS-1. The data for the radioligand displacement assay are summarized in Table 47: A<0.06 μM; 0.06 μM≤B<0.6 μM; 0.6 μM≤C<3.0 μM; D≥3.0 μM.
The probe Kd was determined by titrating tritiated probe under the standard assay conditions plus and minus excess unlabeled probe and fitting the resulting data to a “One site—Total and nonspecific binding” model in Graphpad Prism, version 6.0, San Diego, CA, US. Initially, 0.25 μl of compound dissolved in DMSO at varying concentrations was dispensed to a 384 well plate. Membrane and probe were both prepared at 2× their final concentration in 1× assay buffer as described above. 25 μL of membrane was added to the wells and incubated for 10 minutes. 25 μL of diluted probe was then added to the wells. The assay was incubated for 90 minutes at room temperature. The entire assay volume was then transferred to Millipore GF/B 384-well plates pretreated with 15 μL 0.5% PEI. The filter plates were washed 3× with 75 μL 25 mM TRIS, ph7.5, 0.1% BSA and then dried overnight. Following addition of 45 μL UltimaGold scintillant, the samples were counted in a Perkin Elmer Topcount. The radioactivity remaining is a measure of bound probe. From the bound probe vs concentration of compound titration curve, the IC50 is determined by fitting the data to a standard 3 parameter IC50 model using either Graphpad Prism, version 6.0, San Diego, CA, US, or using GeneData Analyzer, Basel, Switzerland.

Test [3] deals with Colo205-TCF/LEF-Luciferase (Luc) tumor. Put plainly: In vivo inhibition of TCF/LEF reporter activity in Colo-205 tumors. On the set-up: concentration or dose not given beside the values. As to conditions: TCF/LEF luciferase reporter in Colo-205 tumors, nu/nu mice, oral gavage. The procedure: Colo205-TCF/LEF-Luciferase (Luc) tumor cells were expanded in complete DMEM cell culture media [DMEM (Life Technologies, product #11960-051) media supplemented with 10% FBS (Hyclone, catalog #SH30071.03), antimycotic/antibiotic (Life Technologies, product #15240-062), and Glutamax (Life Technologies, product #35050-061)] with 1 ug/ml puromycin. After reaching confluency/high density, the loosely attached cells in media were transferred from the flask to 50 ml conical tubes. Tumor cells adhered to plastic were detached with trypsin and combined with cells in the conical tubes. The tumor cells were triturated, counted, and pelleted by centrifugation. Cell pellets were resuspended in 0.9% injectable saline (6×10^7 cells/ml). A 50 ul volume (3×10^6 cells) was injected subcutaneously in the flanks of 4-6 wk old female nu/nu mice (Charles River Laboratories). Approximately 13-16 days after implantation, tumors between 200-500 mm^3 were selected (based on caliper measurements and applying the formula […]) and randomized into groups of n=4. Mice were dosed by oral gavage with compound dissolved in 1:3:5:1 EtOH:DMSO:PEG-400:H2O at a rate of 10 ml/kg or 1:3:5:1 EtOH:DMSO:PEG-400:H2O alone (Vehicle Control). Tumors were collected from mice euthanized by CO2 inhalation and snap frozen in liquid nitrogen. Tumors were stored in a −80 degrees C. freezer until they were processed.
Tumors were thawed on ice and homogenized in cold Lysis Buffer (20 mM Tris-HCl (pH 7.5), 150 mM NaCl, 1 mM Na2EDTA, 1 mM EGTA, 1% Triton, 2.5 mM sodium pyrophosphate, 1 mM beta-glycerophosphate, 1 mM Na3VO4, 1 μg/ml leupeptin, 0.05% SDS) using a closed tissue grinder system (Fisher Scientific, Cat #02-542-09) on ice according to manufacturer's instructions. For 100 mg of tumor, 500 uL of Lysis Buffer was used. Tumor lysate was transferred to a pre-chilled microcentrifuge tube and centrifuged at 10,000×g for 10 minutes at 4 degrees C. Supernatant was transferred to a new pre-chilled microcentrifuge tube and was used immediately for analysis of protein content and luciferase activity.
Protein content of tumor lysate supernatant was determined using the BCA assay (Life Technologies Cat #23225). Luciferase activity of tumor lysate supernatant was determined by addition of Steady-Glo luminescence reagent (Promega, Cat #E2550) according to manufacturer's instructions and measurement on a Pherastar luminescence plate reader (BMG Labtech). Luciferase activity was normalized to protein content.

pEC50, pIC50: −log10 of the molar value. Like-named read-outs stand apart in the source and are kept apart here.

HEK293 membranes over-expressing WFS-1, sequence (O76024 whole entry): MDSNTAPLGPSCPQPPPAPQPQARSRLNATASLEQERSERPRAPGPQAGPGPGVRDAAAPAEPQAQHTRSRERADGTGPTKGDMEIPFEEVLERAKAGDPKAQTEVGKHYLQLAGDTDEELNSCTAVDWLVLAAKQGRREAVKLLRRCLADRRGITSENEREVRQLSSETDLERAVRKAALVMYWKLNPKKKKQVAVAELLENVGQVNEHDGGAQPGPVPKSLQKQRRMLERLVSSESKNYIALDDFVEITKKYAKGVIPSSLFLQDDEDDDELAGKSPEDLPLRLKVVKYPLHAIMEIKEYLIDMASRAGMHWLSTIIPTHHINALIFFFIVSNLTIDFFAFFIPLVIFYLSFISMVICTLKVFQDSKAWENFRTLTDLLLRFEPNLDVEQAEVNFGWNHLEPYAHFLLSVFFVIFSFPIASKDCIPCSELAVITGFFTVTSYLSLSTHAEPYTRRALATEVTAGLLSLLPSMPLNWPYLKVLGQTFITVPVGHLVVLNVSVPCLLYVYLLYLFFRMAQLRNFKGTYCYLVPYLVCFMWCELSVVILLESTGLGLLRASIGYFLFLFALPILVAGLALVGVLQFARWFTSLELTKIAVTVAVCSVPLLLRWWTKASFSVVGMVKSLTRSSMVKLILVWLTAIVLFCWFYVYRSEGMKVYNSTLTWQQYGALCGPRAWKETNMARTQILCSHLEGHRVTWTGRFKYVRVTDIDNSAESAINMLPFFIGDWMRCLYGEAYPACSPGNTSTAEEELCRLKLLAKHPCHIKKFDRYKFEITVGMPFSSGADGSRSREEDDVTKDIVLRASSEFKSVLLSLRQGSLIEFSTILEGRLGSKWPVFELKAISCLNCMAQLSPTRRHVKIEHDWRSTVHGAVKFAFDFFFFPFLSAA

The pEC50 is the EC50 on a negative log10 scale, so that one unit is a factor of ten. In general, pIC50 refers to −log10 of the IC50, conventionally taken in molar units. Turning to `Cc1nc(N[C@H]2C[C@@H](COc3ccc(C(F)(F)F)nc3)C2)nc2c1NC(=O)[C@H](C(C)C)N2C` (relative stereo) [Compound 551, (S)-7-isopropyl-4,8-dimethyl-2-((cis-3-(((6-(trifluoromethyl)pyridin-3-yl)oxy)methyl)cyclobutyl)amino)-7,8-dihydropteridin-6(511)-one], the pEC50 in the test with Colo-205 cells is greater than 6.22. Further, the values for the pIC50 in test [1] and in test [2] were greater than 6.52 and greater than 7.22, respectively. For the same molecule, the “Percent Remaining Activity at 8 hrs after Dosing” value (“Percent Remaining Activity” below) in test [3] was 20%.

Take `CO[C@H](C)[C@H]1C(=O)Nc2c(C)nc(NCc3cnn(Cc4ccc(OC(F)(F)F)nc4)c3)nc2N1C` [Compound 565, (S)-7-((R)-1-methoxyethyl)-4,8-dimethyl-2-(((1-((6-(trifluoromethoxy)pyridin-3-yl)methyl)-1H-pyrazol-4-yl)methyl)amino)-7,8-dihydropteridin-6(5H)-one]: the pIC50 in test [1] (Homo sapiens, COLO 205, 5 h) is greater than 6.52. Besides, the “Percent Remaining Activity” value in test [3] is 68%.

Consider `Cc1nc(N[C@H]2C[C@@H](Nc3cnc(C(F)(F)F)cn3)C2)nc2c1NC(=O)[C@H](C)N2C` [Compound 578, (S)-4,7,8-trimethyl-2-((cis-3-((5-(trifluoromethyl)pyrazin-2-yl)amino)cyclobutyl)amino)-7,8-dihydropteridin-6(5H)-one], for which the pIC50 in test [1] (Homo sapiens, COLO 205, 5 h) is greater than 6.52. In addition, the “Percent Remaining Activity” value in test [3] is reported as 47%.

With `COCC[C@H]1C(=O)Nc2c(C)nc(NCc3cnn(Cc4ccc(C(F)(F)F)nc4)c3)nc2N1C` [Compound 589, (S)-7-(2-methoxyethyl)-4,8-dimethyl-2-(((1-((6-(trifluoromethyl)pyridin-3-yl)methyl)-1H-pyrazol-4-yl)methyl)amino)-7,8-dihydropteridin-6(5H)-one], the pIC50 in test [1] (Homo sapiens, COLO 205, 5 h) is greater than 6.52. The “Percent Remaining Activity” value in test [3] is reported as 94%.

As to `Cc1nc(N[C@H]2C[C@@H](Nc3cnc(C#N)cn3)C2)nc2c1NC(=O)[C@H](C(C)C)N2C` [Compound 602, 5-((cis-3-(((S)-7-isopropyl-4,8-dimethyl-6-oxo-5,6,7,8-tetrahydropteridin-2-yl)amino)cyclobutyl)amino)pyrazine-2-carbonitrile], the pIC50 in test [1] (Homo sapiens, COLO 205, 5 h) is 6.00 to 6.52. Also, the “Percent Remaining Activity” value in test [3] is reported as 57%.

Consider `CO[C@H](C)[C@H]1C(=O)Nc2c(C)nc(N[C@H]3C[C@@H](COc4ccc(C(F)(F)F)nc4)C3)nc2N1C` [Compound 643, (S)-7-((R)—1-methoxyethyl)-4,8-dimethyl-2-((cis-3-(((6-(trifluoromethyl)pyridin-3-yl)oxy)methyl)cyclobutyl)amino)-7,8-dihydropteridin-6(5H)-one], for which the pEC50 in the test with Colo-205 cells (Homo sapiens, COLO 205, 0.6 h) is greater than 6.22. The pIC50 in test [1] (Homo sapiens, COLO 205, 5 h) is greater than 6.52; in test [2], greater than 7.22. Further, the “Percent Remaining Activity” value in test [3] worked out at 22%.

For `CO[C@H](C)[C@H]1C(=O)Nc2c(C)nc(NCc3cnn(Cc4cc(C(F)(F)F)nn4C)c3)nc2N1C` [Compound 656, (S)-7-((R)-1-methoxyethyl)-4,8-dimethyl-2-(((1-((1-methyl-3-(trifluoromethyl)-1H-pyrazol-5-yl)methyl)-1H-pyrazol-4-yl)methyl)amino)-7,8-dihydropteridin-6(511)-one], in test [1], the pIC50 was greater than 6.52. In addition, the “Percent Remaining Activity” value in test [3] was 51%.

For `CO[C@H](C)[C@H]1C(=O)Nc2c(C)nc(NCc3cnn(Cc4ccc(F)cc4)c3)nc2N1C` [Compound 658, (S)-2-(((1-(4-fluorobenzyl)-1H-pyrazol-4-yl)methyl)amino)-7-((R)-1-methoxyethyl)-4,8-dimethyl-7,8-dihydropteridin-6(5H)-one], the pIC50 in test [1] (Homo sapiens, COLO 205, 5 h) was greater than 6.52. In test [3], the “Percent Remaining Activity” value is recorded as 62%.

As for `COCC[C@H]1C(=O)Nc2c(C)nc(NCc3cnn(Cc4cc(C(F)(F)F)nn4C)c3)nc2N1C` [Compound 678, (S)-7-(2-methoxyethyl)-4,8-dimethyl-2-(((1-((1-methyl-3-(trifluoromethyl)-1H-pyrazol-5-yl)methyl)-1H-pyrazol-4-yl)methyl)amino)-7,8-dihydropteridin-6(5H)-one], the pIC50 in test [1] (Homo sapiens, COLO 205, 5 h) was greater than 6.52. In addition, the “Percent Remaining Activity” value in test [3] is recorded as 75%.

Take “(S)-7-ethyl-2-(((1-((2-isopropyloxazol-5-yl)methyl)-1H-pyrazol-4-yl)methyl)amino)-4,8-dimethyl-7,8-dihydropteridin-6(5H)-one [Compound 513]”: in test [1], the pIC50 is greater than 6.52. In addition, in test [3], the “Percent Remaining Activity” value is listed as 90%.
